Measured values from patent US8759480B2, “Contoxin analogues and methods for synthesis of intramolecular dicarba bridge-containing peptides” (Syngene Limited, priority 2006, dated 2014).

Tested on: neuronal-type nicotinic receptors
Type: cell-based, bovine

SMILES: CN1CCCC1c1cccnc1 (stereo not shown) [NICOTINE, nicotine, reference compound]
- Adrenaline Release 1st: 4.31%
- Adrenaline Release 2nd: 4.52%
- Adrenaline Release 3rd: 4.52%
- Adrenaline Release 4th: 4.48%
- Adrenaline Release % control: 100.000%
- Adrenaline Release mean: 4.46%
- Noradrenaline Release 1st: 6.62%
- Noradrenaline Release 2nd: 6.89%
- Noradrenaline Release 3rd: 6.99%
- Noradrenaline Release 4th: 6.89%
- Noradrenaline Release % control: 100.000%
- Noradrenaline Release mean: 6.85%
- noradrenaline released, basal release (0.72%) subtracted: 6.13%
